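Cultured in 96-well plates, cells were exposed to test compound for 48 hours across five concentrations. TGI: total growth inhibition.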 *1 amine or outer side, *2 acyl side, *3 side chain or, on linkers, in order; H or OH if unused. Where a SMILES comes first, the peptide text is derived from it. [ ]: non-standard residue; d: D form. The star is where a group is joined. ξ: configuration not given here. X27 = O=C([C@H]1CCC[C@H]1N[*:1])[*:2]; ξW = NC(Cc1c[nH]c2ccccc12)C(=O)O; ξF = NC(Cc1ccccc1)C(=O)O; Boc = CC(C)(C)OC(=O)*; ξK = NCCCCC(N)C(=O)O; ξT = CC(O)C(N)C(=O)O; tBu = CC(C)(C)*
Legend:
Assay in all cases: inhibition of tumour cell growth, NCI panel, 48 h
MDA-MB-435 = system: MDA-MB-435
PC-3 prostate = system: PC-3 prostate
UO-31 renal = system: UO-31 renal
CCRF-CEM leukemia = system: CCRF-CEM leukemia
LOX IMVI melanoma = system: LOX IMVI melanoma
HOP-92 NSCLC = system: HOP-92 NSCLC
OVCAR-5 ovarian = system: OVCAR-5 ovarian
RXF 393 renal = system: RXF 393 renal
MDA-MB-231 breast = system: MDA-MB-231 breast
ACHN renal = system: ACHN renal

SMILES | TGI (MDA-MB-435) [µM] | TGI (PC-3 prostate) [µM] | TGI (UO-31 renal) [µM] | TGI (CCRF-CEM leukemia) [µM] | TGI (LOX IMVI melanoma) [µM] | TGI (HOP-92 NSCLC) [µM] | TGI (OVCAR-5 ovarian) [µM] | TGI (RXF 393 renal) [µM] | TGI (MDA-MB-231 breast) [µM] | TGI (ACHN renal) [µM]
COC(=O)CCC(C)[C@H]1CCC2C3C(C[C@H](OC(C)=O)[C@@]21C)[C@@]1(C)CCC2(C[C@H]1C[C@H]3OC(C)=O)OOC1(CCCC1)OO2 (stereo not given in full) | > 100 | > 100 | 27.8 | > 100 | > 100 | 64.8 | > 100 | > 100 | > 100 | > 100
N#C[C@H](C(=O)c1ccccc1F)c1nc2ccccc2s1 | > 100 | > 100 | > 100 | 73.9 | > 100 | > 100 | > 100 | > 100 | > 100 | > 100
O=[N+]([O-])c1ccc(-c2cc(O)c3nc4ccccc4n3c2)cc1 | > 31.6 | > 100 | > 100 | > 100 | > 100 | > 100 | > 100 | > 100 | > 100 | > 100
C(/C=C/c1ccccc1)=Nc1ccc2c(c1)Cc1ccccc1-2 | > 100 | > 100 | > 100 | > 100 | 63 | > 100 | > 100 | > 100 | > 100 | > 100
Cc1ccc(S(=O)(=O)N2CCN(S(=O)(=O)c3ccc(C)cc3)CCN(S(=O)(=O)c3ccc(C)cc3)Cc3cc(C#N)c(C#N)cc3CN(S(=O)(=O)c3ccc(C)cc3)CC2)cc1 | > 100 | > 100 | > 100 | > 100 | > 100 | 89.3 | > 100 | > 100 | > 100 | > 100
CCOc1ccc2nc3nc(=O)[nH]c(C)c3c(NCCCN(CC)CC)c2c1 | > 100 | > 100 | > 100 | > 100 | > 100 | > 100 | > 100 | > 100 | > 100 | > 100
N#CC(N)c1ccc(OCCCCCCCCCCOc2ccc(C(N)C#N)cc2)cc1 (stereo not given) | > 100 | > 100 | > 100 | 67.8 | > 100 | > 100 | > 100 | > 100 | > 100 | > 100
O=C(NC(=S)Nc1ccc2c(c1)Sc1ccccc1O2)c1ccc([N+](=O)[O-])cc1 | > 100 | > 100 | > 100 | > 100 | > 100 | > 100 | > 100 | > 100 | > 100 | > 100
CCN(CC)C(=O)Cn1c(-c2ccccc2)cc2ccccc21 | > 100 | > 100 | 64.5 | > 100 | > 100 | 77.7 | > 100 | 97.4 | > 100 | > 100
COc1cc(C(=O)/C=C/c2ccc(OCCSCCCCCCCCCCSCCOc3ccc(/C=C/C(=O)c4cc(OC)c(OC)c(OC)c4)cc3)cc2)cc(OC)c1OC | > 100 | > 100 | > 100 | > 100 | > 100 | > 100 | > 100 | > 100 | > 100 | > 100
C=CCc1[nH]c2c(OCc3ccccc3)cc(N(CC=C)C(C)=O)cc2c1C | 33.5 | 20.2 | 21.3 | 75.9 | 25 | 25.7 | 27.2 | 26.7 | 23.2 | 25.3
COc1ccc(OC)c(CSc2ccc(OC)c(OC)c2)c1 | > 100 | > 100 | > 100 | > 100 | > 100 | 98.3 | > 100 | > 100 | > 100 | > 100
CCCCCC1CC=CC(=O)O1 (stereo not given) | 20.2 | 26.3 | 24 | 19.7 | 25.1 | 37.7 | 21.4 | 23.1 | 24.1 | 33
CC1(C)CC(O)C2=C(O1)C(=O)c1ncccc1C2=O (stereo not given) | 3.3 | 9.57 | 4.34 | > 20.7 | 3.4 | 5.44 | 3.72 | 12.3 | 5.92 | 11.5
Cc1ccc(S(=O)(=O)CN2C(=O)C(c3ccccc3)(c3ccccc3)C23OC(c2ccc(Cl)cc2)=CC3=O)cc1 (stereo not given) | > 10 | > 10 | > 10 | > 10 | > 10 | > 10 | > 10 | > 10 | > 10 | > 10
Cn1c(NNc2ccccc2)cc(=O)[nH]c1=O | 43.1 | > 100 | > 100 | 53 | > 100 | > 100 | > 100 | > 100 | > 100 | > 100
OCc1cc2c(ccc3sc4ccc5sc6ccc7ncccc7c6c5c4c32)s1 | > 100 | 43.9 | 7.25 | > 100 | 26.6 | > 100 | 33 | 28.9 | 18.2 | > 100

SMILES | TGI (MDA-MB-435) [µM] | TGI (PC-3 prostate) [µM] | TGI (UO-31 renal) [µM] | TGI (CCRF-CEM leukemia) [µM] | TGI (LOX IMVI melanoma) [µM] | TGI (HOP-92 NSCLC) [µM] | TGI (OVCAR-5 ovarian) [µM] | TGI (RXF 393 renal) [µM] | TGI (MDA-MB-231 breast) [µM] | TGI (ACHN renal) [µM]
C=C1CCCC2[C@](C)(CC3=C(Cl)C(=O)C=C(OC)C3=O)C(C)CC[C@]12C (stereo not given in full) | 14.2 | 6.64 | 5.77 | 11.6 | 4.23 | 14.7 | 9 | 12.1 | 16.9 | 10.7
C=CCNC(=S)N=Nc1c(O)n(CN2CCOCC2)c2ccc([N+](=O)[O-])cc12 | > 100 | > 100 | > 100 | > 100 | > 100 | 83.3 | > 100 | > 100 | > 100 | > 100
CCCC(=O)NC(Nc1cc(C)ccn1)(C(=O)OCC)C(F)(F)F (stereo not given) | > 100 | > 100 | > 100 | > 100 | > 100 | > 100 | > 100 | > 100 | > 100 | > 100
CCCC(=O)Nc1cc(/C=C/C(=O)N2CC(CCl)c3c2cc(OCc2ccccc2)c2[nH]cc(C)c32)n(C)c1 (stereo not given) | 0.918 | > 13.1 | 0.215 | 0.244 | 6.71 | 0.213 | 1.22 | 0.0852 | > 25 | 0.0833
CC(=O)OC(CN1CCN(c2ccccn2)CC1)Cn1sc2nc(C)cc(C)c2c1=O (stereo not given) | 34.5 | 31.3 | 30.2 | > 100 | 47.4 | > 100 | 31.5 | 35.6 | 32.6 | 30
CC(OC(C)(C)C)C1NC(=O)C(CCCCNC(=O)OC(C)(C)C)NC(=O)C(Cc2c[nH]c3ccccc23)NC(=O)C(Cc2ccccc2)NC(=O)[C@H]2CCC[C@H]2NC(=O)C(Cc2ccccc2)NC1=O (stereo not given in full) (cyclo([X27][ξF][ξW][ξK](Boc)[ξT](tBu)[ξF])) | > 100 | > 100 | > 100 | > 100 | > 100 | > 100 | 59.8 | > 100 | > 100 | > 100
CCCCc1ccc(Nc2nc(Cl)c3ncn(COCCOC(C)=O)c3n2)cc1 | 33.1 | 32.2 | 29.7 | > 100 | 27.9 | 5.33 | 35.5 | 38.2 | 30.6 | 32.7
NC(CSCc1ccc(I)cc1)C(=O)O (stereo not given) | > 100 | > 100 | > 100 | > 100 | > 100 | > 100 | > 100 | > 100 | > 100 | > 100
O=c1ccn(CC2(CO)CCCC2)c(=O)[nH]1 | > 100 | > 100 | > 100 | > 100 | > 100 | > 100 | > 100 | > 100 | > 100 | > 100
CCCCCCCCCCCCCCCCCCNc1ccn(C2OC(COP(=O)(O)OCC3OC(n4cc(C)c(=O)[nH]c4=O)CC3F)C(O)C2O)c(=O)n1 (stereo not given) | 38.9 | 5.38 | 43.6 | 12.4 | 14.9 | 37.5 | 6.48 | 3.84 | 48.7 | > 57.1
CN(C)CCCC1c2ccccc2Oc2ccc(C(F)(F)F)cc21 (stereo not given) | 19.1 | 27.1 | 6.49 | 31.5 | 31.6 | 25.2 | 29.2 | 17.4 | 26 | 30.4
CC1=NN(c2nc(N)nc(CBr)n2)C(C)(C)C1 | 27.8 | 18 | 1.61 | 0.983 | 1.89 | 1.08 | 13.8 | 12 | 19.8 | 13.9
COc1cc2nc(Nc3cccc(Br)c3)nc(Nc3cccc(Br)c3)c2cc1OC | 36 | 41.6 | 29.4 | 46.5 | 30.4 | 29.5 | 70.9 | 33.7 | 39.7 | 29.4
c1ccc2c(CN3CCN(Cc4c[nH]c5ccccc45)CC3)c[nH]c2c1 | 32.4 | 43.7 | 27.7 | > 100 | 30.6 | 31.2 | 36.4 | 28.8 | 31.2 | 40.6
Cc1cc(O)c2c(c1O)C(=O)c1cccc(O)c1C2=O | > 100 | > 100 | > 100 | > 100 | > 100 | > 100 | > 100 | > 100 | > 100 | > 100
CC(=O)Nc1ccc(NS(=O)(=O)c2ccc3nc(C)n(NS(=O)(=O)c4ccc(NC(C)=O)cc4)c(=O)c3c2)cc1 | > 100 | > 100 | > 100 | > 100 | > 100 | > 100 | > 100 | > 100 | > 100 | > 100

Source: PubChem BioAssay (NCI)
